Assay results reported in US20100152210A1, “PURINYL DERIVATIVES AND THEIR USE AS POTASSIUM CHANNEL MODULATORS” (NEURO SEARCH A/S/, priority 2007, published 2010).

Molecular target: T1, hSK3 channels (Homo sapiens, UniProt Q9UGI6)
T1 construct: expressed in transfected cells; host or cells: HEK293
Assay: Whole-cell patch-clamp recording of SK3 current in HEK293 cells expressing hSK3 channels
Type: cell-based
Experimental: The ionic current through small-conductance Ca^2+-activated K^+ channels (SK channels, subtype 3) is recorded using the whole-cell configuration of the patch-clamp technique in a classic patch-clamp set-up using HEK293 tissue culture cells expressing hSK3 channels as described in e.g. WO 2006/100212.
The SC100 value determined is defined as the Stimulating Concentration required for increasing the baseline current by 100%. The below SC100 value is an indication of the SK3 activating properties of the compounds of the invention.

The SC100 (Stimulating Concentration required for increasing the baseline current by 100%): 0.04 µM
SMILES: Cc1cc(C)n(-c2nc(Nc3ccc(Cl)cc3)c3ncn(Cc4ccccc4)c3n2)n1 [Compound 9.1, [9-Benzyl-2-(3,5-dimethyl-pyrazol-1-yl)-9H-purin-6-yl]-(4-chloro-phenyl)-amine]
